Test: Safety (adverse events, NCI CTCAE v4.0), expansion phase
Settings: expansion Total (n = 82)
Text: Based on data collected during dose-escalation, the expansion phase evaluated the safety and efficacy of QD and QW sapanisertib in patients with RCC, endometrial or bladder cancer. Patients could continue receiving sapanisertib for ≤1 year (or beyond, if the investigator and sponsor agreed) in the absence of disease progression or unacceptable toxicity.
Patients who received ≥1 dose of sapanisertib were included in the safety population. The response-evaluable population included patients who received ≥1 dose of sapanisertib, had measurable disease at baseline, and had ≥1 postbaseline assessment. […] Adverse events (AEs) were assessed using the National Cancer Institute Common Terminology Criteria for Adverse Events, v4.0. Patients were provided with a home blood-glucose meter to monitor their fasting predose blood-glucose measurements to assess hyperglycaemia as an on-target AE and PD marker.

CC(C)n1nc(-c2ccc3oc(N)nc3c2)c2c(N)ncnc21 [Sapanisertib]
Abdominal pain, all-grade AE of any cause: 17 (21) n (%) | Abdominal pain, grade ≥3 AE of any cause: 3 (4) n (%) | Acute kidney injury, grade ≥3 AE of any cause: 4 (5) n (%) | Acute kidney injury, treatment-related AE: 6 (7) n (%) | Anaemia, all-grade AE of any cause: 19 (23) n (%) | Anaemia, grade ≥3 AE of any cause: 5 (6) n (%) | Anaemia, treatment-related AE: 12 (15) n (%) | Any AE: 82 (100) n (%) | Any AE resulting in dose modification/interruption: 55 (67) n (%) | Any AE resulting in treatment discontinuation: 12 (15) n (%) | Any SAE: 34 (41) n (%) | Any grade ≥3 AE: 58 (71) n (%) | Any treatment-related AE: 82 (100) n (%) | Any treatment-related SAE: 12 (15) n (%) | Any treatment-related grade ≥3 AE: 38 (46) n (%) | Arthralgia, all-grade AE of any cause: 11 (13) n (%) | Asthenia, grade ≥3 AE of any cause: 3 (4) n (%) | Asthenia, treatment-related AE: 12 (15) n (%) | Asthenia, treatment-related grade ≥3 AE: 2 (2) n (%) | Blood creatinine increased, all-grade AE of any cause: 14 (17) n (%) | Blood creatinine increased, treatment-related AE: 8 (10) n (%) | Constipation, all-grade AE of any cause: 28 (34) n (%) | Constipation, grade ≥3 AE of any cause: 2 (2) n (%) | Cough, all-grade AE of any cause: 22 (27) n (%) | Decreased appetite, all-grade AE of any cause: 41 (50) n (%) | Decreased appetite, treatment-related AE: 37 (45) n (%) | Dehydration, all-grade AE of any cause: 17 (21) n (%) | Dehydration, grade ≥3 AE of any cause: 3 (4) n (%) | Dehydration, treatment-related AE: 9 (11) n (%) | Dehydration, treatment-related grade ≥3 AE: 2 (2) n (%) | Depression, all-grade AE of any cause: 8 (10) n (%) | Diarrhoea, all-grade AE of any cause: 41 (50) n (%) | Diarrhoea, grade ≥3 AE of any cause: 3 (4) n (%) | Diarrhoea, treatment-related AE: 35 (43) n (%) | Diarrhoea, treatment-related grade ≥3 AE: 3 (4) n (%) | Dizziness, all-grade AE of any cause: 12 (15) n (%) | Dry mouth, all-grade AE of any cause: 15 (18) n (%) | Dry mouth, treatment-related AE: 10 (12) n (%) | Dysgeusia, all-grade AE of any cause: 17 (21) n (%) | Dysgeusia, treatment-related AE: 16 (20) n (%) | Dyspepsia, treatment-related AE: 6 (7) n (%) | Dyspnoea, grade ≥3 AE of any cause: 2 (2) n (%) | Fatigue, all-grade AE of any cause: 60 (73) n (%) | Fatigue, grade ≥3 AE of any cause: 11 (13) n (%) | Fatigue, treatment-related AE: 56 (68) n (%) | Fatigue, treatment-related grade ≥3 AE: 10 (12) n (%) | Haematuria, grade ≥3 AE of any cause: 2 (2) n (%) | Headache, all-grade AE of any cause: 12 (15) n (%) | Headache, treatment-related AE: 4 (5) n (%) | Hypercholesterolemia, treatment-related AE: 1 (1) n (%) | Hyperglycaemia, all-grade AE of any cause: 50 (61) n (%) | Hyperglycaemia, grade ≥3 AE of any cause: 13 (16) n (%) | Hyperglycaemia, treatment-related AE: 49 (60) n (%) | Hyperglycaemia, treatment-related grade ≥3 AE: 13 (16) n (%) | Hyperkalaemia, grade ≥3 AE of any cause: 2 (2) n (%) | Hypertension, grade ≥3 AE of any cause: 2 (2) n (%) | Hypokalaemia, grade ≥3 AE of any cause: 2 (2) n (%) | Hyponatremia, grade ≥3 AE of any cause: 3 (4) n (%) | Hypophosphatemia, grade ≥3 AE of any cause: 8 (10) n (%) | Hypophosphatemia, treatment-related AE: 9 (11) n (%) | Hypophosphatemia, treatment-related grade ≥3 AE: 6 (7) n (%) | Lymphopenia, grade ≥3 AE of any cause: 2 (2) n (%) | Lymphopenia, treatment-related grade ≥3 AE: 0 (0) n (%) | Musculoskeletal chest pain, grade ≥3 AE of any cause: 2 (2) n (%) | Nausea, all-grade AE of any cause: 54 (66) n (%) | Nausea, grade ≥3 AE of any cause: 5 (6) n (%) | Nausea, treatment-related AE: 51 (62) n (%) | Nausea, treatment-related grade ≥3 AE: 4 (5) n (%) | Oedema peripheral, all-grade AE of any cause: 15 (18) n (%) | On-study deaths: 3 (4) n (%) | Oropharyngeal pain, all-grade AE of any cause: 13 (16) n (%) | Pain in extremity, grade ≥3 AE of any cause: 3 (4) n (%) | Pneumonia, grade ≥3 AE of any cause: 2 (2) n (%) | Pruritus generalised, all-grade AE of any cause: 19 (23) n (%) | Pruritus generalised, treatment-related AE: 15 (18) n (%) | Pruritus generalised, treatment-related grade ≥3 AE: 1 (1) n (%) | Pruritus, all-grade AE of any cause: 15 (18) n (%) | Pruritus, treatment-related AE: 11 (13) n (%) | Pyrexia, all-grade AE of any cause: 14 (17) n (%) | Rash maculo-papular, all-grade AE of any cause: 24 (29) n (%) | Rash maculo-papular, grade ≥3 AE of any cause: 4 (5) n (%) | Rash maculo-papular, treatment-related AE: 17 (21) n (%) | Rash maculo-papular, treatment-related grade ≥3 AE: 3 (4) n (%) | Rash, treatment-related AE: 2 (2) n (%) | Rash, treatment-related grade ≥3 AE: 0 (0) n (%) | Sepsis, grade ≥3 AE of any cause: 2 (2) n (%) | Stomatitis (includes oropharyngeal pain and mucosal inflammation), treatment-related AE: 37 (45) n (%) | Stomatitis, all-grade AE of any cause: 40 (49) n (%) | Stomatitis, grade ≥3 AE of any cause: 4 (5) n (%) | Stomatitis, treatment-related grade ≥3 AE: 4 (5) n (%) | Thrombocytopenia, grade ≥3 AE of any cause: 4 (5) n (%) | Thrombocytopenia, treatment-related grade ≥3 AE: 4 (5) n (%) | Transitional cell carcinoma, grade ≥3 AE of any cause: 2 (2) n (%) | Urinary tract infection, all-grade AE of any cause: 15 (18) n (%) | Vomiting, all-grade AE of any cause: 43 (52) n (%) | Vomiting, grade ≥3 AE of any cause: 3 (4) n (%) | Vomiting, treatment-related AE: 41 (50) n (%) | Weight decreased, all-grade AE of any cause: 15 (18) n (%) | Weight decreased, treatment-related AE: 9 (11) n (%)

From paper PMC7686313, “Phase 1 study of mTORC1/2 inhibitor sapanisertib (TAK-228) in advanced solid tumours, with an expansion phase in renal, endometrial or bladder cancer” (British Journal of Cancer, 2020)
